How the values were obtained:
Assay in all cases: KINOMEscan competition binding
Details in all cases: compound 10.0 µM
RPS6KA2 KD1 (human) = RPS6KA2 KD1 (human) (UniProt Q15349)
DMPK (human) = DMPK (human) (UniProt Q09013)
TNK1 (human) = TNK1 (human) (UniProt Q13470)
PRKG1 (human) = PRKG1 (human) (UniProt Q13976)
FER (human) = FER (human) (UniProt P16591)
PAK1 (human) = PAK1 (human) (UniProt Q13153)
EPHA7 (human) = EPHA7 (human) (UniProt Q15375)
TNNI3K (human) = TNNI3K (human) (UniProt Q59H18)
ZAP70 (human) = ZAP70 (human) (UniProt P43403)
BMPR1A (human) = BMPR1A (human) (UniProt P36894)
[1] = system: FLT3 (human), P36888 [N841I]
TAOK1 (human) = TAOK1 (human) (UniProt Q7L7X3)
RIPK1 (human) = RIPK1 (human) (UniProt Q13546)
MST1R (human) = MST1R (human) (UniProt Q04912)
PIM3 (human) = PIM3 (human) (UniProt Q86V86)
STK3 (human) = STK3 (human) (UniProt Q13188)
TYRO3 (human) = TYRO3 (human) (UniProt Q06418)
CDKL2 (human) = CDKL2 (human) (UniProt Q92772)
MST4 (human) = MST4 (human) (UniProt Q9P289)
CHEK2 (human) = CHEK2 (human) (UniProt O96017)
CSNK2A1 (human) = CSNK2A1 (human) (UniProt P68400)
STK35 (human) = STK35 (human) (UniProt Q8TDR2)
TEK (human) = TEK (human) (UniProt Q02763)
PRKCD (human) = PRKCD (human) (UniProt Q05655)
TNK2 (human) = TNK2 (human) (UniProt Q07912)
CSK (human) = CSK (human) (UniProt P41240)
PIM1 (human) = PIM1 (human) (UniProt P11309)
[2] = system: EIF2AK4 KD2 (human), Q9P2K8 [S808G]
EPHA6 (human) = EPHA6 (human) (UniProt Q9UF33)
FGFR2 (human) = FGFR2 (human) (UniProt P21802)
AKT3 (human) = AKT3 (human) (UniProt Q9Y243)
[3] = biological target: JAK1 JH2 pseudokinase (human) (UniProt P23458)
CDK17 (human) = CDK17 (human) (UniProt Q00537)
RPS6KA5 KD2 (human) = RPS6KA5 KD2 (human) (UniProt O75582)
ACVR2A (human) = ACVR2A (human) (UniProt P27037)
[4] = biological target: JAK1 JH1 catalytic (human) (UniProt P23458)
NEK6 (human) = NEK6 (human) (UniProt Q9HC98)
MAPK4 (human) = MAPK4 (human) (UniProt P31152)
MAPK10 (human) = MAPK10 (human) (UniProt P53779)
NUAK2 (human) = NUAK2 (human) (UniProt Q9H093)
NUAK2 (human), sequence (Q9H093 whole entry, looked up): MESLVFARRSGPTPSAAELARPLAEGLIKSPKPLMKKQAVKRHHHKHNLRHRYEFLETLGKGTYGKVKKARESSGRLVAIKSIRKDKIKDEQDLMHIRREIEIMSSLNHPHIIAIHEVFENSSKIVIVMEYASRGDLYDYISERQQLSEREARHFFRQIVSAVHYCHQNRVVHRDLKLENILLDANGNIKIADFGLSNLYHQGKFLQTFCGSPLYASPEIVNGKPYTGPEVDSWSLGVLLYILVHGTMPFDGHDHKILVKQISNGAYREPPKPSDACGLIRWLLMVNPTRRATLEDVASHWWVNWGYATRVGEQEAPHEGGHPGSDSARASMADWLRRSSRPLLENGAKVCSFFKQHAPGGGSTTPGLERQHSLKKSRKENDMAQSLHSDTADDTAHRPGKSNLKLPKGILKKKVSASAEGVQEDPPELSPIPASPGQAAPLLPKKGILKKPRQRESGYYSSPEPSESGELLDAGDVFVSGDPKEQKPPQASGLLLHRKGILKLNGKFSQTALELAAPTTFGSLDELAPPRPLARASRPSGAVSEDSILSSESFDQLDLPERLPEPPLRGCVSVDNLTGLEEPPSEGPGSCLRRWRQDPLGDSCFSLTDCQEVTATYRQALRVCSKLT

JAK1 JH2 pseudokinase (human), sequence (P23458 whole entry, looked up): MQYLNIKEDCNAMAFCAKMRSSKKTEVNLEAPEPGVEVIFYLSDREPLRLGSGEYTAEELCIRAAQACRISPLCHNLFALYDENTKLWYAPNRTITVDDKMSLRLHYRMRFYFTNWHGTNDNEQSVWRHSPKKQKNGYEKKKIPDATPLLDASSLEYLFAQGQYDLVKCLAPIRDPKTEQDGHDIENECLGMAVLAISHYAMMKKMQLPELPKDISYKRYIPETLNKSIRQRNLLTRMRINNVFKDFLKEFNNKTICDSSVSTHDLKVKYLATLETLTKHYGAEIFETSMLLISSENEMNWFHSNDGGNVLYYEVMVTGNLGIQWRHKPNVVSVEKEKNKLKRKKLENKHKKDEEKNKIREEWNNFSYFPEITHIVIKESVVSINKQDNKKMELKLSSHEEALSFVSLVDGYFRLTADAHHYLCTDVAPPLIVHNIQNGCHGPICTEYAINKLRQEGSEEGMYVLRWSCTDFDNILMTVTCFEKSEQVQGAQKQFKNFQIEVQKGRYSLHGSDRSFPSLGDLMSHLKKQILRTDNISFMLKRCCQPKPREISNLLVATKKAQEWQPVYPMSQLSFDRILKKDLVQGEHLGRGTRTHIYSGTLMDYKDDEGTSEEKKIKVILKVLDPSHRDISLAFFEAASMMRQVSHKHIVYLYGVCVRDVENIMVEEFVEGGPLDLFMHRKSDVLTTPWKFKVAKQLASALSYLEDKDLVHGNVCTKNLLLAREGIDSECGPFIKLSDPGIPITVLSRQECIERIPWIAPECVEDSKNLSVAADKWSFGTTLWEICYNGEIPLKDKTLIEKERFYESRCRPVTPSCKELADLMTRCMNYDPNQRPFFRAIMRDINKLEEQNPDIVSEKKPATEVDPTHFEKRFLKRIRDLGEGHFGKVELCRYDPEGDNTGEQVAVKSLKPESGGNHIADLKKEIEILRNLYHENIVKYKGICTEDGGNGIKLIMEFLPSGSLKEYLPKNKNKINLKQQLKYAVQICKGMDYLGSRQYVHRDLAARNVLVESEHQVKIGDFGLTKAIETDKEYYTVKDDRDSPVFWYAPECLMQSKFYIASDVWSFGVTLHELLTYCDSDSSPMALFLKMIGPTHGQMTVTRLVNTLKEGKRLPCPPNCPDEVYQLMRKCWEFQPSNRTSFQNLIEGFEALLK
JAK1 JH1 catalytic (human), sequence (P23458 whole entry, looked up): as above
RPS6KA2 KD1 (human), sequence (Q15349 whole entry, looked up): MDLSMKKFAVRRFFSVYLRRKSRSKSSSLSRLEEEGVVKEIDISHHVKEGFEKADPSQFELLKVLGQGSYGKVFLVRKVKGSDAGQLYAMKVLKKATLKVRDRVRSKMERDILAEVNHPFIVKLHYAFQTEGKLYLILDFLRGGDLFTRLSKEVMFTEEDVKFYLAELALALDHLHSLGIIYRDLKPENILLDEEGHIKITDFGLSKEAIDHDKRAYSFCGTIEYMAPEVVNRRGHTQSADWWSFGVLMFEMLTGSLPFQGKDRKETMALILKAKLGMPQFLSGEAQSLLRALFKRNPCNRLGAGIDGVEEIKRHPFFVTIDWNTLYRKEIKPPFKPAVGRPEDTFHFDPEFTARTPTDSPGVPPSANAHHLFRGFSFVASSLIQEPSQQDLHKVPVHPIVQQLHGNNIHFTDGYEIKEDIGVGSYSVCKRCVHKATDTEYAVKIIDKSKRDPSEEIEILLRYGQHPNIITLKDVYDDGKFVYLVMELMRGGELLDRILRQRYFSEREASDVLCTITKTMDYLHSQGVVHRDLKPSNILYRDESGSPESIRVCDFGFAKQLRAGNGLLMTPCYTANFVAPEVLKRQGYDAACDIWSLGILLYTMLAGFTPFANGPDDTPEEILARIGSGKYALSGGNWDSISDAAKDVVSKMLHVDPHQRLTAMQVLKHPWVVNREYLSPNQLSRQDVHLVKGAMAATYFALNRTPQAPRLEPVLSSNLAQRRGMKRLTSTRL
STK3 (human), sequence (Q13188 whole entry, looked up): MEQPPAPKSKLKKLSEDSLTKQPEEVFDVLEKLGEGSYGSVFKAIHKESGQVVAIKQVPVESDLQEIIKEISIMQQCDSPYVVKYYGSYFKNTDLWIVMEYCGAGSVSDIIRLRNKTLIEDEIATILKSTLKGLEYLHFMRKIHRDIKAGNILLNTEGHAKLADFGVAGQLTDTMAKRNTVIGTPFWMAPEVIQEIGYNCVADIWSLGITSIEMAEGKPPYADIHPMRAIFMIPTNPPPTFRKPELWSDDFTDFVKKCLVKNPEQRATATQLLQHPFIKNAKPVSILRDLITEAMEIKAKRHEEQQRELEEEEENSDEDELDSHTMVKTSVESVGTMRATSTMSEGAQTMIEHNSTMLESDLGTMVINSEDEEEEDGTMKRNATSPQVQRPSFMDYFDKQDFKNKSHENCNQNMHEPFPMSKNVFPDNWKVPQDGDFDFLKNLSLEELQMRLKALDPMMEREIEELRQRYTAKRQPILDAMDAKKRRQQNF
ACVR2A (human), sequence (P27037 whole entry, looked up): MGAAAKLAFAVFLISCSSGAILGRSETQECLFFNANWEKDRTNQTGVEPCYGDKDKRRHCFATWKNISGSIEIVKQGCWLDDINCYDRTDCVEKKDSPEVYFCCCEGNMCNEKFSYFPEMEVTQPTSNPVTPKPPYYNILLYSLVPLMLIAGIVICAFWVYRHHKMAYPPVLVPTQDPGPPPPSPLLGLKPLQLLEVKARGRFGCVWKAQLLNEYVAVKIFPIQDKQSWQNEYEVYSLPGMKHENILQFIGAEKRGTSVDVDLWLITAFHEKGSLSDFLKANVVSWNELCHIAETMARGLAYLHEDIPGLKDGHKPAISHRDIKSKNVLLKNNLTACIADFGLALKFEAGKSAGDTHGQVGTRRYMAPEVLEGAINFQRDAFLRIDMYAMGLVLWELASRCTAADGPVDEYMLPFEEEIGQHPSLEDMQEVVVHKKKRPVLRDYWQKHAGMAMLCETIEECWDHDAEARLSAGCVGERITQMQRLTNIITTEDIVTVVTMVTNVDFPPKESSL
RPS6KA5 KD2 (human), sequence (O75582 whole entry, looked up): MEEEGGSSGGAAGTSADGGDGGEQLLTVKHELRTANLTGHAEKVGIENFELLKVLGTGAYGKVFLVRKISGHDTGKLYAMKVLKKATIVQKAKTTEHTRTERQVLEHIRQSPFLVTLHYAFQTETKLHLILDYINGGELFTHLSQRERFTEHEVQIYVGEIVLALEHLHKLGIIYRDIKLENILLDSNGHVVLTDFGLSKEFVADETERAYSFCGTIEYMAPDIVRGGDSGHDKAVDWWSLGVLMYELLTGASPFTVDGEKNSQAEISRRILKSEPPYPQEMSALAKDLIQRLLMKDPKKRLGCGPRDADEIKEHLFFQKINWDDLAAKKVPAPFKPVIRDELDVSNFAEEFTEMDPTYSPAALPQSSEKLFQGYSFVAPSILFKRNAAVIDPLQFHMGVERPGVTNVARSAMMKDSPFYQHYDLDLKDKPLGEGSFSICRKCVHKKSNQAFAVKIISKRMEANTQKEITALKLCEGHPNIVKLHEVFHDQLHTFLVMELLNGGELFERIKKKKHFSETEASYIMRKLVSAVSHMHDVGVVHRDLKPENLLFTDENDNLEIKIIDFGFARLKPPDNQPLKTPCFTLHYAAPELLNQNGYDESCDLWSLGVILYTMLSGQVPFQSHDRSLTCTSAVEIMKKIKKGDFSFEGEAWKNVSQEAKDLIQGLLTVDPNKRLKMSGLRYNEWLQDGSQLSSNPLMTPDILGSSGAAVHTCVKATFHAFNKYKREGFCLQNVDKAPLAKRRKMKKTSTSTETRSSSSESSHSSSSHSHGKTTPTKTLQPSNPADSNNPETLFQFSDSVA
PIM1 (human), sequence (P11309 whole entry, looked up): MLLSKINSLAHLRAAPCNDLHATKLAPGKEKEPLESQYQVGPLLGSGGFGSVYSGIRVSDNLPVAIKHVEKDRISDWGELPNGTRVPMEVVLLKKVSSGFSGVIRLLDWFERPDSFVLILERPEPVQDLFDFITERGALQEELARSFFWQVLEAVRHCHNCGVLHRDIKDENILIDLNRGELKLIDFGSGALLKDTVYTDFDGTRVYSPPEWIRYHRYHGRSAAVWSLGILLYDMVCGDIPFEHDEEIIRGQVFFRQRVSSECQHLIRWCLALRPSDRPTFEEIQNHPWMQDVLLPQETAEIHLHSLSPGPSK

SMILES	kinase still bound, per cent of control (RPS6KA2 KD1 (human)) [%]	kinase still bound, per cent of control (DMPK (human)) [%]	kinase still bound, per cent of control (TNK1 (human)) [%]	kinase still bound, per cent of control (PRKG1 (human)) [%]	kinase still bound, per cent of control (FER (human)) [%]	kinase still bound, per cent of control (PAK1 (human)) [%]	kinase still bound, per cent of control (EPHA7 (human)) [%]	kinase still bound, per cent of control (TNNI3K (human)) [%]	kinase still bound, per cent of control (ZAP70 (human)) [%]	kinase still bound, per cent of control (BMPR1A (human)) [%]	kinase still bound, per cent of control [1] [%]	kinase still bound, per cent of control (TAOK1 (human)) [%]	kinase still bound, per cent of control (RIPK1 (human)) [%]	kinase still bound, per cent of control (MST1R (human)) [%]	kinase still bound, per cent of control (PIM3 (human)) [%]	kinase still bound, per cent of control (STK3 (human)) [%]	kinase still bound, per cent of control (TYRO3 (human)) [%]	kinase still bound, per cent of control (CDKL2 (human)) [%]	kinase still bound, per cent of control (MST4 (human)) [%]	kinase still bound, per cent of control (CHEK2 (human)) [%]	other results
COc1cc(C(=O)NC2CCN(C)CC2)ccc1Nc1ncc2c(n1)N(C1CCCC1)C(C)CC(=O)N2C (stereo not given)	100	100	100	100	31	100	100	100	100	100	100	100	100	100	100	100	100	100	100	100	kinase still bound, per cent of control (CSNK2A1 (human)): 100%; kinase still bound, per cent of control (STK35 (human)): 100%; kinase still bound, per cent of control (TEK (human)): 100%; kinase still bound, per cent of control (PRKCD (human)): 100%; kinase still bound, per cent of control (TNK2 (human)): 100%; kinase still bound, per cent of control (CSK (human)): 100%; kinase still bound, per cent of control (PIM1 (human)): 100%; kinase still bound, per cent of control [2]: 100%; kinase still bound, per cent of control (EPHA6 (human)): 100%; kinase still bound, per cent of control (FGFR2 (human)): 100%; kinase still bound, per cent of control (AKT3 (human)): 100%; kinase still bound, per cent of control [3]: 22%; kinase still bound, per cent of control (CDK17 (human)): 100%; kinase still bound, per cent of control (RPS6KA5 KD2 (human)): 100%; kinase still bound, per cent of control (ACVR2A (human)): 100%; kinase still bound, per cent of control [4]: 100%; kinase still bound, per cent of control (NEK6 (human)): 100%; kinase still bound, per cent of control (MAPK4 (human)): 100%; kinase still bound, per cent of control (MAPK10 (human)): 100%; kinase still bound, per cent of control (NUAK2 (human)): 100%
Cc1ccc2nc(NCCN)c3ncc(C)n3c2c1	100	100	100	100	98	100	100	100	100	32	41	66	100	100	92	90	100	82	95	97	kinase still bound, per cent of control (CSNK2A1 (human)): 33%; kinase still bound, per cent of control (STK35 (human)): 90%; kinase still bound, per cent of control (TEK (human)): 100%; kinase still bound, per cent of control (PRKCD (human)): 100%; kinase still bound, per cent of control (TNK2 (human)): 100%; kinase still bound, per cent of control (CSK (human)): 100%; kinase still bound, per cent of control (PIM1 (human)): 100%; kinase still bound, per cent of control [2]: 98%; kinase still bound, per cent of control (EPHA6 (human)): 100%; kinase still bound, per cent of control (FGFR2 (human)): 100%; kinase still bound, per cent of control (AKT3 (human)): 100%; kinase still bound, per cent of control [3]: 47%; kinase still bound, per cent of control (CDK17 (human)): 92%; kinase still bound, per cent of control (RPS6KA5 KD2 (human)): 85%; kinase still bound, per cent of control (ACVR2A (human)): 92%; kinase still bound, per cent of control [4]: 100%; kinase still bound, per cent of control (NEK6 (human)): 100%; kinase still bound, per cent of control (MAPK4 (human)): 89%; kinase still bound, per cent of control (MAPK10 (human)): 100%; kinase still bound, per cent of control (NUAK2 (human)): 100%
O=C(NOC[C@H](O)CO)c1ccc(F)c(F)c1Nc1ccc(I)cc1F	100	90	68	100	100	100	94	51	89	100	78	100	85	78	100	90	80	87	77	86	kinase still bound, per cent of control (CSNK2A1 (human)): 77%; kinase still bound, per cent of control (STK35 (human)): 83%; kinase still bound, per cent of control (TEK (human)): 100%; kinase still bound, per cent of control (PRKCD (human)): 100%; kinase still bound, per cent of control (TNK2 (human)): 72%; kinase still bound, per cent of control (CSK (human)): 100%; kinase still bound, per cent of control (PIM1 (human)): 100%; kinase still bound, per cent of control [2]: 84%; kinase still bound, per cent of control (EPHA6 (human)): 94%; kinase still bound, per cent of control (FGFR2 (human)): 100%; kinase still bound, per cent of control (AKT3 (human)): 89%; kinase still bound, per cent of control [3]: 100%; kinase still bound, per cent of control (CDK17 (human)): 95%; kinase still bound, per cent of control (RPS6KA5 KD2 (human)): 100%; kinase still bound, per cent of control (ACVR2A (human)): 80%; kinase still bound, per cent of control [4]: 78%; kinase still bound, per cent of control (NEK6 (human)): 100%; kinase still bound, per cent of control (MAPK4 (human)): 77%; kinase still bound, per cent of control (MAPK10 (human)): 90%; kinase still bound, per cent of control (NUAK2 (human)): 99%

Reference: the kinase profiling compilation of Christmann-Franck et al. (2016)
